We go through 9 compounds from patent publication US8993631B2, “Method of treating contrast-induced nephropathy” (Novartis AG, priority 2010, dated 2015).

The term IC50 denotes the concentration at which inhibition is half-maximal.

Assay [1] deals with adult male cannulated Sprague-Dawley rats. Kind of assay: Renal function assessment in rats: GFR by FITC-inulin clearance method. The settings on record: relative to vehicle-treated rats.
Method: A fluorescein isothiocyanate (FITC)-inulin stock solution was prepared by weighing the FITC-inulin powder, adding it to saline (50 mg/ml), and heating it in boiling water until dissolved. The solution was filtered and dialyzed overnight to remove unbound FITC. The next day, the dialysate was again filtered to sterilize it.
Approximately 1-2 weeks before the study, femoral arterial and venous catheters were implanted in the rats under isoflurane anesthesia. The catheters were exteriorized through a spring tether/swivel system and the instrumented rats were housed in specialized cages.
On the experimental day, rats were administered a NEP inhibitor or its vehicle by oral gavage. Thirty min later, FITC-inulin (10 mg/kg i.v. bolus) was administered via the venous catheter. Blood samples were withdrawn from the arterial catheter at 3, 7, 10, 15, 30, 60, 90, and 120 min after the FITC-inulin injection for plasma FITC-inulin and compound concentrations.
Arterial pressure was continuously monitored throughout the experiment.
The stock solution of FITC-inulin was serially diluted to generate a standard curve. The dosing solution was also diluted and analyzed to determine the exact amount of FITC-inulin injected. […] Concentrations of FITC-inulin in the plasma and dosing solution were determined by linear regression from the standard curve. FITC-inulin AUC(O-infinity) was derived by WinNonlin for each rat's plasma concentration-time curves. GFR (FITC-inulin clearance) was calculated for each animal as the injected dose divided by the AUC.
Assay [2] deals with recombinant human neutral endopeptidase (NEP, EC 3.4.24.11) (Homo sapiens (Human), UniProt P08473). The assay is described as follows: In vitro inhibition of recombinant human neutral endopeptidase (fluorescence lifetime assay). The assay is classed as biochemical. To be noted: 1 hour pre-incubation, effect determined after 1 hour at room temperature, pH 7.4. The text has this: The activity of a compound for use in the method according to the present invention can be assessed by the following in vitro & in vivo methods and/or by the following in vitro & in vivo methods well-described in the art. See A fluorescence lifetime-based assay for protease inhibitor profiling on human kallikrein 7 Doering K, Meder G, Hinnenberger M, Woelcke J, Mayr L M, Hassiepen U Biomol Screen.
In particular, the in vitro inhibition of recombinant human neutral endopeptidase (NEP, EC 3.4.24.11) can be determined as follows: […]

For assay [3], the system named is patients with chronic renal insufficiency undergoing cardiac catheterization. To be noted: 48 hour infusion at 0.042 μg/kg/min, at-risk patients undergoing cardiac catheterization; cited from earlier work.

Counter-ions that a name gives are not always drawn. Where no end group is shown, it is not given here.

Chain of recombinant human neutral endopeptidase (NEP, EC 3.4.24.11) (P08473 whole entry): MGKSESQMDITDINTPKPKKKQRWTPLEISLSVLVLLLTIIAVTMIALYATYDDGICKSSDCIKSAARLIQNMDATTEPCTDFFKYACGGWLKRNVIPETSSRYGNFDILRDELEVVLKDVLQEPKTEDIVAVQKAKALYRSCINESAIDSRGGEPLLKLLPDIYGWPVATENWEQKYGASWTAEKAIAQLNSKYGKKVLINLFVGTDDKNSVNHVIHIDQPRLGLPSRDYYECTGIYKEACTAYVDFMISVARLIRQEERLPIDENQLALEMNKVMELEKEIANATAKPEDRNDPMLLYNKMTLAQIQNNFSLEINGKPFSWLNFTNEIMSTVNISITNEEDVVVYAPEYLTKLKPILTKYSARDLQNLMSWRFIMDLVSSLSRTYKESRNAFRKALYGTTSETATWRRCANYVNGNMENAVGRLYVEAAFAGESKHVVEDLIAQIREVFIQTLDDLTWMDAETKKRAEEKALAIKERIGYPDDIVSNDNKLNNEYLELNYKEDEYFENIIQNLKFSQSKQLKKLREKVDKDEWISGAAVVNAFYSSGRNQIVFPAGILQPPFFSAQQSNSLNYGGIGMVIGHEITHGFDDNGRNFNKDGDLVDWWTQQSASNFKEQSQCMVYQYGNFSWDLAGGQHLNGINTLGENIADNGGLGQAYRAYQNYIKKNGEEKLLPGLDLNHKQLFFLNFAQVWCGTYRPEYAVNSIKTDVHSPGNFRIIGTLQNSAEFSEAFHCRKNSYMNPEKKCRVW

On to `CCOC(=O)[C@H](C)C[C@@H](Cc1ccc(-c2ccccc2)cc1)NC(=O)CCC(=O)O` [Example 34, (2R,4S)-5-Biphenyl-4-yl-4-(3-carboxy-propionylamino)-2-methyl-pentanoic acid ethyl ester], for which the “% GFR increase” value in assay [1] (dose 100 mg/kg p.o.) stood at 37%.

As for `CCOC(=O)C[C@@H](Cc1ccc(-c2cccc(Cl)c2)cc1)NC(=O)CCC(=O)O` [Example 1-2, (R)-4-(1-(3′-chlorobiphenyl-4-yl)-4-ethoxy-4-oxobutan-2-ylamino)-4-oxobutanoic acid], in assay [1] (dose 0.1 mg/kg p.o.), the “% GFR increase” value was determined as 23%.

Regarding `CCOC(=O)[C@H](C)C[C@@H](Cc1ccc(-c2cccc(Cl)c2)cc1)NC(=O)CCC(=O)O` [Example 35, (2R,4S)-4-(3-carboxy-propionylamino)-5-(3′-chloro-biphenyl-4-yl)-2-methyl-pentanoic acid ethyl ester], the “% GFR increase” value in assay [1] (dose 1 mg/kg p.o.) was 22%.

On to `C[C@H](N[C@@H](Cc1ccc(-c2cccc(Cl)c2)cc1)C(=O)Nc1cc(O)no1)C(=O)O` [Example 32-4, (S)-2-[(S)-2-(3′-Chloro-biphenyl-4-yl)-1-(3-hydroxy-isoxazol-5-ylcarbamoyl)-ethylamino]-propionic acid], for which the IC50 in assay [2] is 2.4 nM.

As for `CCOC(=O)C[C@@H](Cc1ccc(-c2ccccc2)cc1)NC(=O)CN1CCC[C@H]1C(=O)OCc1ccccc1` [Example 3-11, (S)-benzyl 1-(2-((R)-1-(biphenyl-4-yl)-4-ethoxy-4-oxobutan-2-ylamino)-2-oxoethyl)pyrrolidine-2-carboxylate trifluoroacetic acid salt], the concentration for half-maximal inhibition (IC50) in assay [2] came to 18 nM.

Regarding `CCOC(=O)[C@H](C)N[C@@H](Cc1ccc(-c2cccc(Cl)c2)cc1)C(=O)Nc1nnn[nH]1` [Example 31, (S)-2-[(S)-2-(3′-chloro-biphenyl-4-yl)-1-(1H-tetrazol-5-ylcarbamoyl)-ethylamino]-propionic acid ethyl ester], the “% GFR increase” value in assay [1] (dose 0.1 mg/kg p.o.) is recorded as 27%.

For `CCc1ncc(C(=O)N[C@@H](CC(=O)O)Cc2ccc(-c3cc(Cl)ccc3F)cc2)o1` [Example 9-7], in assay [1] (dose 1 mg/kg p.o.), the “% GFR increase” value is 35%.

As for `CCCCOC(=O)CCC(=O)N[C@@H](CC(=O)O)Cc1ccc(-c2cccc(Cl)c2)cc1` [Example 3-12, (R)-3-(4-butoxy-4-oxobutanamido)-4-(3′-chlorobiphenyl-4-yl)butanoic acid], the “% GFR increase” value in assay [1] (dose 1 mg/kg p.o.) is listed as 32%. Besides, the half-maximal inhibitory concentration (IC50) in assay [2] stood at 15 nM.

With “Human Endogenous atrial natriuretic peptides (SLRRSSCFGGRMDRIGAQSGLGCNSFRY; ends and bridges not checked; cysteine pairing not given here; UniProt P01160 124-151, looked up) [Human ANP, "Human Endogenous atrial natriuretic peptides (ANP) infusions have been available in Japan for use in acute decompensated heart failure"; infused at 0.042 μg/kg/min]”, the “reduction of the incidence of contrast-induced nephropathy” value in assay [3] was 70%.
